Reference: patent publication US20250312378A1, “COMPOSITION COMPRISING ANTI-FOLIC ACID AGENT FOR DIFFERENTIATION OF MESENCHYMAL STEM CELL INTO CARTILAGE” (EWHA UNIVERSITY-INDUSTRY COLLABORATION FOUNDATION, priority 2021, published 2025)

Legend:
ACAN [1] = assay: ACAN protein expression by immunofluorescence assay; format: cell-based, Human; conditions: 0.1 μM, 14 days 3D culture
Method: (§1) Protein expression for COL II, SOX 9, ACAN and COL I was investigated using immunofluorescence assay for stem cells cultured for 14 days. Specifically, TMSCs, which were 3D cultured with antifolates or KGN for 14 days and then encapsulated in thermogel scaffolds, were fixed with 4.0% paraformaldehyde (PFA) for 12 hours and quickly frozen at −70° C. Then, the thermogels were cryosectioned to a thickness of 10 μm using CM1850 (Leica, Germany). All the samples were treated with Triton (0.25% v/v in PBS), and then blocked with bovine serum albumin (1.0% w/v in PBS), and treated with anti-COL II, anti-SOX 9, anti-ACAN, and anti-COL I primary antibodies. Next, the samples were washed with PBS and treated with the following secondary antibodies: goat anti-mouse IgG H&L Alexa Fluor®594 for COL II and ACAN, and goat anti-rabbit IgG H&L Alexa Fluor®594 for SOX 9 and COL I. All the antibodies were purchased from Abcam (USA) and tested according to the manufacturer's protocol. In addition, each sample was stained for nuclei and F-actin with DAPI (Molecular probes, USA) and phalloidin (PHD) (Abcam, USA), respectively. Images were obtained using an Olympus IX71 fluorescence microscope and Olympus DP2-BSW software.
(§2) For immunofluorescence assay, the cell nucleus and actin were stained blue and green with DAPI and PHD, respectively, and the antibodies for each protein were stained red.

[2] = In vitro drug release from PEG-PA thermogel into PBS (HPLC); format: physicochemical; conditions: from PEG-PA thermogel (10.0 wt %) into PBS, 37° C.
Method: The drug release profile of the thermogel was determined in vitro. […] The temperature of the polymer solution containing the drug was increased to 37° C. to cause a sol-gel transition. After 30 minutes, phosphate-buffered saline (PBS) (1.2 mL, 37° C.) was added thereto, and the mixture was placed in a shaking thermostatic bath with 40 strokes/min at 37° C. PBS was replaced at specific sampling intervals. The drug released into the medium, PBS, was analyzed by a high-performance liquid chromatography system (HPLC; Waters 1525B, USA) equipped with a photodiode detector (Waters 2998, USA) and a Jupiter@5 μm C18 300A LC column (Phenomenex, USA). As a mobile phase, a mixed solvent of methanol/water (40/60 v/v) containing trifluoroacetic acid (0.1%) was used for dapsone, pralatrexate and trimethoprim, and a mixed solvent of acetonitrile/water (35/65 v/v) containing formic acid (0.1%) was used for KGN. The flow rate was set at 1.0 ml/min. The amount of drug released was analyzed at 260 nm for dapsone, 307 nm for pralatrexate, 287 nm for trimethoprim, and 274 nm for KGN, and was determined as the mean value of triplicate determinations.

SOX 9 [3] = assay: SOX 9 protein expression by immunofluorescence assay; format: cell-based, Human; conditions: 0.1 μM, 14 days 3D culture
Method: as §1, §2

SOX 9 [4] = assay: SOX 9 mRNA expression by qPCR in TMSCs in PEG-PA 3D matrix; format: cell-based, Human; conditions: 0.1 μM
Source text: (§3) Based on the screening results obtained in Example 3, dapsone (1), pralatrexate (4), and trimethoprim (7) were selected as antifolate candidates.
(§4) Human TMSCs used as stem cells were donated from Ewha Womans University Mokdong Hospital (Seoul, Korea). The cells were isolated from a donor after tonsillectomy in compliance with the ethical guidelines of the University. DMEM (Corning, USA) containing 10.0% (v/v) fetal bovine serum (FBS, Corning, USA), 1.0% (v/v) penicillin/streptomycin (PS, Corning, USA) and 1.0% (v/v) […] (AA, Corning, USA) was used as a growth medium, and the isolated human TMSCs were cultured using the growth medium in traditional polystyrene culture dishes at 37° C. under 5% CO2 atmosphere. Then, the stem cells (passage 7, 0.5×10^6 cells/well) were mixed with the aqueous PEG-PA solution (10.0 wt % in growth medium) containing an antifolate or KGN at 20° C. A system containing no antifolate or KGN was used as a control. The TMSC-suspended solution was injected into a 24-well culture plate (0.2 ml/well) at 37° C. to form a hydrogel matrix. The medium was replaced every 3 days during a 3D culture period of 21 days, and each experiment was performed in triplicate.
(§5) Chondrogenic differentiation of TMSCs was investigated at the mRNA and protein levels of chondrogenic biomarkers such as COL II, SOX 9, and ACAN. Gene expression levels were determined compared to that of a control system containing no antifolate using equal amounts of cDNA. COL I, an osteogenic biomarker, was also used to determine whether osteogenic differentiation occurred when an antifolate was used.
(§6) Specifically, […], mRNA was extracted from the cells in the thermogel by using a TRIZOL™ reagent (Invitrogen, USA) according to the manufacturer's protocol, and the mRNA concentration was assayed by a Nano Drop 2000 spectrometer (Thermo Scientific, USA). Equal amounts of cDNA were used in qPCR to determine gene expression levels compared to that of the control system containing no antifolate. Then, total cDNA was synthesized using a ReverTra Ace® qPCR RT kit (Toyobo, Japan), and mRNA expression levels were measured using a CFX96™ real-time RT-PCR system (Bio-Rad, USA) and an iQ™ SYBR® Green Supermix solution (Bio-Rad, USA). The relative expression levels of target genes were calculated as 2^−ΔΔCt by the following calculation equation: ΔΔCt=(gene A−GAPDH)t−(gene A−GAPDH)0. Here, the subscript 0 refers to data on day 0 (3 hours). The primer sequences used for amplification are shown in Table 1 below, and each test value was determined as the mean value of triplicate determinations.

COL II [5] = assay: Screening of COL II mRNA expression under 3D culture conditions (FIG. 4B); format: cell-based, Human; conditions: 0.1 μM
Method: Various antifolates were screened to evaluate their effects on cell proliferation and viability and their chondrogenic potential. The antifolates used were dapsone (1), methotrexate (2), pemetrexed (3), pralatrexate (4), proguanil (5), pyrimethamine (6), and trimethoprim (7). Stem cells loaded in a PEG-PA thermogel scaffold containing each antifolate or KGN were cultured in a DMEM growth medium containing FBS (10.0% v/v) for 21 days. A control experiment was performed under the same conditions, except that no antifolate was added.
Expression of chondrogenic biomarkers was investigated in the presence of antifolates. The expression of COL II, the most widely used biomarker for chondrogenic differentiation of stem cells, was investigated at the mRNA level (FIG. 4B).

RUNX1 = RUNX1 immunofluorescence in TMSCs; format: cell-based, Human; conditions: serum-free growth medium after overnight starvation
Method: For immunofluorescence assay, stem cells were starved overnight and then treated with each antifolate or KGN in serum-free growth medium. Each cell was treated with bovine serum albumin (1.0% w/v in PBS), and then treated with anti-CBFβ primary antibody (Abcam, USA) and anti-RUNX1 primary antibody (Santa Cruz Biotechnology, USA) and incubated. The cells were treated with anti-rabbit IgG H&L secondary antibodies (Abcam, USA) and anti-mouse IgG H&L secondary antibodies (Abcam, USA) against CBFβ and RUNX1, respectively. The cell nuclei were stained with DAPI (Molecular probes, USA), and each image was obtained using an Olympus IX71 fluorescence microscope and Olympus DP2-BSW software.

COL II [6] = assay: COL II mRNA expression by qPCR in TMSCs in PEG-PA 3D matrix; format: cell-based, Human; conditions: 0.1 μM; for COL II mRNA level compared to control system, day 14: day 14, vs control system containing no antifolate; for COL II expression level compared to control system (day not given): vs control system, time point not given
Source text: as §3, §4, §5
Specifically, after 0, 14, and 21 days of 3D culture, mRNA was extracted from the cells in the thermogel by using a TRIZOL™ reagent (Invitrogen, USA) according to the manufacturer's protocol, and the mRNA concentration was assayed by a Nano Drop 2000 spectrometer (Thermo Scientific, USA). Equal amounts of cDNA were used in qPCR to determine gene expression levels compared to that of the control system containing no antifolate. Then, total cDNA was synthesized using a ReverTra Ace® qPCR RT kit (Toyobo, Japan), and mRNA expression levels were measured using a CFX96™ real-time RT-PCR system (Bio-Rad, USA) and an iQ™ SYBR® Green Supermix solution (Bio-Rad, USA). The relative expression levels of target genes were calculated as 2^−ΔΔCt by the following calculation equation: ΔΔCt=(gene A−GAPDH)t−(gene A−GAPDH)0. Here, the subscript 0 refers to data on day 0 (3 hours). The primer sequences used for amplification are shown in Table 1 below, and each test value was determined as the mean value of triplicate determinations.

COL II [7] = assay: COL II protein expression by immunofluorescence assay; format: cell-based, Human; conditions: 0.1 μM, 14 days 3D culture
Method: as §1, §2

ACAN [8] = assay: ACAN mRNA expression by qPCR in TMSCs in PEG-PA 3D matrix; format: cell-based, Human; conditions: 0.1 μM; for ACAN expression level on day 14 compared to control system: day 14, vs control system containing no antifolate; for ACAN mRNA level on day 14 compared to day 0: day 14 vs day 0 (3 hours after start of culture)
Source text: as §3, §4, §5, §6

CBFβ = assay: Nuclear translocation of CBFβ in TMSCs by Western blot; format: cell-based, Human; conditions: serum-free growth medium after overnight starvation
Source text: Filamin A is an actin-binding protein that regulates the cytoskeletal network involved in chondrogenic differentiation. When KGN binds to filamin A in the cytosol, the interaction between filamin A and CBFβ is broken, and when the dissociated CBFβ enters the nucleus, CBFβ regulates RUNX1, thereby promoting differentiation of MSCs into chondrocytes. Whether the antifolate can be involved in this mechanism and regulate chondrogenic differentiation-related factors was examined by Western blot analysis and immunofluorescence assay.
Specifically, for Western blot analysis, stem cells (TMSCs) were starved overnight and then treated with each antifolate or KGN in serum-free growth medium. Then, cytosolic and nuclear proteins of the TMSCs were obtained using a nuclear/cytosolic fractionation kit (Cell Biolabs Inc., USA) and total protein was obtained using a cell extraction buffer (Invitrogen, USA) containing a protease inhibitor and phenyl methane sulfonyl fluoride (1.0 mM). Each of the cytosolic and nuclear proteins was loaded, detected with anti-CBFβ primary antibody (Cell Signaling Technology, USA), and then treated with anti-rabbit IgG HRP-conjugated secondary antibody (Cell Signaling Technology, USA) and incubated. Then, the proteins were visualized with an enhanced chemiluminescence substrate (Bio-rad, USA) using an Amersham Imager 600 (GE, UK).

In the case of `C#CCC(Cc1cnc2nc(N)nc(N)c2n1)c1ccc(C(=O)N[C@@H](CCC(=O)O)C(=O)O)cc1` (stereo partly shown) [pralatrexate], the “fluorescence intensity of ACAN protein” value (ACAN [1]) is reported as “highest”, the “drug released over 24 hours” value [2] is reported as 79% and the “fluorescence intensity of SOX 9 protein” value (SOX 9 [3]) is reported as “highest”. The “SOX 9 expression change” value (SOX 9 [4]) was “significantly (p<0.01) increased”, the “SOX 9 mRNA level, rank among systems” value (SOX 9 [4]) was “highest” and the “SOX 9 mRNA expression level compared to control system, day 14” value (SOX 9 [4]) was 4.2 fold. For the same molecule, the “mRNA expression level of COL II compared to control” value (COL II [5]) was 2.1 fold, the “fluorescence intensity of RUNX1 in the nucleus compared to control” value (RUNX1) was “increased” and the “COL II expression, rank among systems” value (COL II [6]) was “highest”. The “COL II expression relative to KGN” value (COL II [6]; day 14) was 2 fold, the “COL II mRNA level compared to control system, day 14” value (COL II [6]) was 3.9 fold and the “COL II expression on day 14 compared to day 0” value (COL II [6]; day 14 vs day 0 (3 hours after start of culture)) was 10 fold. For the same molecule, the “COL II expression level compared to control system (day not given)” value (COL II [6]) was 3.5 fold, the “fluorescence intensity of COL II protein” value (COL II [7]) was “highest” and the “ACAN expression level on day 14 compared to control system” value (ACAN [8]) was 4.3 fold. The “ACAN mRNA level on day 14 compared to day 0” value (ACAN [8]) was 12 fold and the “nuclear translocation of CBFβ (nuclear versus cytosolic band intensity, FIG. 8B)” value (CBFβ) was “increased”.
With `COc1cc(Cc2cnc(N)nc2N)cc(OC)c1OC` [trimethoprim] the “drug released over 24 hours” value [2] was 79%, the “SOX 9 expression change” value (SOX 9 [4]) was “significantly (p<0.01) increased” and the “SOX 9 mRNA expression level compared to control system, day 14” value (SOX 9 [4]) was 2.9 fold. For the same molecule, the “mRNA expression level of COL II compared to control” value (COL II [5]) was 1.5 fold, the “COL II mRNA level compared to control system, day 14” value (COL II [6]) was 2.1 fold and the “COL II expression level compared to control system (day not given)” value (COL II [6]) was 2.1 fold. The “ACAN expression level on day 14 compared to control system” value (ACAN [8]) was 2.2 fold and the “ACAN mRNA level on day 14 compared to day 0” value (ACAN [8]) was 6 fold.
In the case of `Nc1ccc(S(=O)(=O)c2ccc(N)cc2)cc1` [dapsone], the “drug released over 24 hours” value [2] is reported as 70%, the “mRNA expression level of COL II compared to control” value (COL II [5]) is reported as 1.8 fold and the “COL II expression level compared to control system (day not given)” value (COL II [6]) is reported as 2.6 fold.
With `O=C(O)c1ccccc1C(=O)Nc1ccc(-c2ccccc2)cc1` [KGN, kartogenin] the “mRNA expression level of COL II compared to control” value (COL II [5]) was 1.5 fold, the “COL II mRNA level compared to control system, day 14” value (COL II [6]) was 1.7 fold and the “COL II expression level compared to control system (day not given)” value (COL II [6]) was 2.1 fold. The “ACAN expression level on day 14 compared to control system” value (ACAN [8]) was 1.7 fold, the “ACAN mRNA level on day 14 compared to day 0” value (ACAN [8]) was 5 fold and the “ACAN mRNA level relative to control system, day 20” value (ACAN [8]; day 20) was “approximately 3.7 times”.
